The values below come from ChEMBL document CHEMBL5634138, “Discovery of a novel BLT2 antagonist for the treatment of inflammatory airway diseases” (Eur J Med Chem, 2023).

The subject of one series is CHO. Briefly: (§1) Cytotoxicity against CHO cells assessed as inhibition of cell growth at 10 uM incubated overnight by MTS assay reltive to control. The series is classed as toxicity, cell-based, Cricetulus griseus. The following applies: chinese hamster, cho, 10 µM. In general terms: Tetrazolium assays rely on reduction of a dye to a coloured formazan, in cell work by metabolically active cells.

The nature of series [1]: as §1. As to conditions: chinese hamster, CHO cells, read-out: Activity. It counts as toxicity, cell-based, Cricetulus griseus.
Series [2] concerns the target T1, Leukotriene B4 receptor 2 (Mus musculus) (UniProt Q9JJL9).
T1 sequence (whole entry): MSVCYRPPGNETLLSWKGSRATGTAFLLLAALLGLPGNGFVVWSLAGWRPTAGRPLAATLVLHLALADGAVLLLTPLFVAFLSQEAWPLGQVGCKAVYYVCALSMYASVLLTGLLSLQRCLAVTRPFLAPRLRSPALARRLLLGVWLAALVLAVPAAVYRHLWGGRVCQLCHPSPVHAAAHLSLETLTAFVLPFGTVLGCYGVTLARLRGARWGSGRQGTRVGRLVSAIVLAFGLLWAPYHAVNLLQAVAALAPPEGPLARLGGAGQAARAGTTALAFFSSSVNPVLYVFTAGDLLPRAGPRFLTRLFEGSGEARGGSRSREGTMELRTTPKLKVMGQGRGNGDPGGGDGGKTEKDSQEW
As to the kind of experiment: Displacement of 3[H]LTB4 from mouse BLT2 by competitive binding assay. The following applies: filed as agonist.

In series [3] the target is T2, Leukotriene B4 receptor 2 (Mus musculus, UniProt Q9JJL9).
T2 sequence (Q9JJL9 whole entry): T1 sequence (whole entry)
Briefly: Agonist activity at mouse BLT2 expressed in CHO cells assessed as induction of calcium accumulation. The series is classed as functional, cell-based.

pEC50: −log10 of the molar value.

`CCCCC(=O)N(Cc1ccc(-c2ccc(N)cc2)cc1)c1ccccc1`: the Activity entry in the series with CHO is given as “Non-Toxic”.
With `CCCCC(=O)N(Cc1ccc(-c2cccc(C(=O)O)c2)cc1)c1ccccc1`, in the series with CHO, the Activity result is “Non-Toxic”.
For the molecule `CCCCC(=O)N(Cc1ccc(-c2ccccc2CCC(=O)O)cc1)c1ccccc1`, the inhibition at 10 µM in series [1] was determined as 4%.
Take `CCCCC(=O)N(Cc1ccc(-c2ccc(OC)cc2)cc1)c1cccc(C(F)(F)F)c1`: the Activity result in the series on CHO was “Non-Toxic”.
In the case of `CCCCC(=O)N(Cc1ccc(-c2ccccc2CC(=O)O)cc1)c1ccccc1`, the inhibition at 10 µM in series [1] amounted to 25%.
Consider `CCCCC(=O)N(Cc1ccc(-c2ccc(OC)cc2)cc1)c1ccccc1`, for which the Activity entry in the series on CHO was “Non-Toxic”.
`CCCCC(=O)N(Cc1ccc(-c2ccccc2C(=O)O)cc1)c1ccccc1` had an Activity in series [2] of 5 nM. In addition, the negative-log EC50 (pEC50) in series [3] is 7.70.
On to `CCCCC(=O)N(Cc1ccc(-c2ccc(O)cc2)cc1)c1ccccc1`, for which the Activity entry in the series on CHO was “Non-Toxic”.
`CCCCC(=O)N(Cc1ccc(-c2ccc(C(=O)N3CCN(C(C)C)CC3)cc2)cc1)c1ccccc1`: the Activity result in the series with CHO is “Non-Toxic”.
Same read-out and setting: under `CCCCC(=O)N(Cc1ccc(-c2ccc(OCC(=O)O)cc2)cc1)c1cccc(C(F)(F)F)c1` stands “Non-Toxic”.
`CCCCC(=O)N(Cc1ccc(-c2ccc(O)nc2)cc1)c1cccc(F)c1`: the Activity result with CHO is given as “Non-Toxic”.
For the molecule `CCCCC(=O)N(Cc1ccc(-c2ccc(OCC(=O)O)cc2)cc1)c1cccc(C)c1`, the Activity entry in the series with CHO is recorded as “Non-Toxic”.
On the same count and under the same terms, with `CCCCC(=O)N(Cc1ccc(-c2ccc(C(=O)NCC)cc2)cc1)c1ccccc1` the entry was “Non-Toxic”; with `CCCCC(=O)N(Cc1ccc(-c2ccc(C(N)=O)cc2)cc1)c1ccccc1`, “Non-Toxic”.
On the same count and under the same terms, under `CCCCC(=O)N(Cc1ccc(-c2ccc(C(=O)N3CCN(C)CC3)cc2)cc1)c1ccccc1` stands “Non-Toxic”.

Broadly, the pEC50 is the negative decadic logarithm of the EC50, by convention in mol/L.
